Laboratory results as given in patent publication US4155909A, “2-Alkyl nicotinoids and processes for their production” (priority 1977, dated 1979).
Values joined by “and” are separate entries in the source; they are usually repeats but may differ in a detail not shown here. Identical values can stand only once.

Assays:
Aphids = assay: Aphid spray test on replicate ivy cuttings infested with Aphids; format: in vivo; settings: for Avg. % Dead / % Dead / Insecticidal Effectiveness: aphids; for Avg. % Dead: average of 3 replicates; for Avg. % Dead / % Dead / No. of Aphids Alive / No. of Aphids Dead: 5 ml sprayed, 18 hours; for % Dead / No. of Aphids Alive / No. of Aphids Dead: per replicate (1, 2, 3); for Insecticidal Effectiveness: as compared to nicotine (100%); for No. of Aphids Alive / No. of Aphids Dead: 100 mg in 10 ml ethanol + 40 ml water with surfactant
Experimental: A 100 mg sample of the candidate compound was dissolved in 10 ml absolute ethanol. To the solution was added 40 ml tap water containing 0.5 ml of 1% surfactant. A 5 ml sample of each solution was sprayed on to replicate ivy cuttings infested with Aphids. The results, tabulated below in Table I were recorded 18 hours following the application of the sprays. […]
(§1) In the first column, the LD50 of the compounds in mice is a measure of their mammalian toxicity. The second column illustrates the effectiveness of the candidate compounds as insecticides as compared to nicotine, whereas the third column is the ratio of insecticidal effectiveness to mammalian toxicity.

[1] = Mammalian toxicity, LD50 in mice; format: in vivo, mouse; settings: in vivo; mouse; measure of mammalian toxicity
Description: as §1

mammals = settings: Haglid et al., compared with nicotine; cited from earlier work
female house flies = assay: Topical application to the notum of female house flies; format: in vivo; settings: for insecticidal effectiveness in words: common houseflies, compared with nicotine; for Avg. % Dead / Percent Dead, Run 1 / Percent Dead, Run 2: house flies, 50 mg in 0.4 ml ethanol, 0.3 μl applied, 24 hours; for Avg. % Dead: average of Run 1 and Run 2
Experimental: A 50 mg sample of the candidate compound was dissolved on 0.4 ml absolute ethanol. A 0.3 μl sample of the solution was applied to the notum of female house flies which has been anesthetized with ether. Results were read twenty-four hours later.

mouse = assay: Mammalian toxicity, LD50 in mice; format: in vivo; settings: compared with nicotine
Description: as §1

Compound	Avg. % Dead (Aphids) [%]	% Dead (Aphids; 1080 min)	Insecticidal Effectiveness (Aphids) [%]	No. of Aphids Alive (Aphids)	No. of Aphids Dead (Aphids)	LD50 [1] [mg/kg]	nicotinic / pharmacological activity in words (mammals)	insecticidal effectiveness in words (female house flies)	Avg. % Dead (female house flies) [%]	Percent Dead, Run 1 (female house flies) [%]	Percent Dead, Run 2 (female house flies) [%]	mammalian toxicity in words (mouse)	% Dead (Aphids) [%]
Cc1ccc(C2CCCN2C)c(C)n1 (centres unmarked) [2,6-dimethylnicotine, 2,6-Dimethyl-3-(1-methyl-2-pyrrolidinyl)pyridine]	6	0% and 13% and 4%	6	32 and 20 and 87	0 and 3 and 66	41							
Cc1ncccc1C1CCCCN1 (centres unmarked) [2-methylanabasine, 2-Methyl-3-(2-piperidinyl)pyridine]	52	62% and 50% and 43%	52	24 and 27 and 87	39 and 27 and 66	15.7							
Cc1ccncc1C1CCCN1C (centres unmarked) [4-methylnicotine]							little or no nicotinic activity						
Cc1ncccc1C1CCCN1 (centres unmarked) [2-methylnornicotine, 2-Methyl-3-(2-pyrrolidinyl)pyridine]	3	2% and 7% and 0%	3	39 and 27 and 30	2 and 0	100		only slightly less effective	70	80	60		
Cc1ncccc1C1CCCN1C (centres unmarked) [2-methylnicotine, 2-Methyl-3-(1-methyl-2-pyrrolidinyl)pyridine]	6	4% and 5% and 8%		54 and 38 and 55	2 and 5			as effective an insecticide as nicotine itself	100	100	100	lower mammalian toxicity than nicotine	
Cc1ccc(C2CCCN2C)cn1 (centres unmarked) [6-methylnicotine]							identical in pharmacological activity to nicotine itself						
CN1CCC[C@H]1c1cccnc1 [l-nicotine, reference compound]	100			0	45 and 27 and 39	0.26			100	100	100		100
